Where two headings read alike, the source gives them in different places.
Legend:
[1] = molecular target: T1, ligand binding domain of MR (Homo sapiens, UniProt P08235); assay: functional cell-based MR transactivation assay in CHO-K1 cells; conditions: duplicate
T1 construct: expressed in transfected cells; host or cells: CHO-K1
T1 sequence (P08235 726-964 limits assumed): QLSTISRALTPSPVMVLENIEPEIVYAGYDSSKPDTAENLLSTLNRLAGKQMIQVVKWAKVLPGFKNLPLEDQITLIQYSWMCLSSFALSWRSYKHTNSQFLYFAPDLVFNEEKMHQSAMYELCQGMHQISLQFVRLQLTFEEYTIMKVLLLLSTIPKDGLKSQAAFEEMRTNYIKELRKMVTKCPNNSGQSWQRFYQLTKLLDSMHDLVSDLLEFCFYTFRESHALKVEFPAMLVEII

[2] = system: S810L MR mutant; set-up: method as in Geller et al. 2000, Amazit et al. 2015; conditions: ref Geller et al. 2000, Amazit et al. 2015; cited from earlier work
[3] = system: MR; set-up: method as in Amazit et al. 2015; conditions: ref Amazit et al. 2015; cited from earlier work
[4] = system: SRC-1 recruitment at the promoter of the SCNN1A gene; set-up: method as in Amazit et al. 2015; conditions: ref Amazit et al. 2015; cited from earlier work
[5] = quantitative whole-body autoradiography, [14C]-labeled, healthy rats; ref Kolkhof et al. 2014; cited from earlier work
[6] = system: DOCA/salt rats; set-up: method as in Kolkhof et al. 2014; conditions: ref Kolkhof et al. 2014, cited from earlier work
[7] = system: mouse model of pressure overload-induced HF; set-up: method as in Grune et al. 2016; conditions: ref Grune et al. 2016; cited from earlier work
[8] = set-up: method as in Pitt et al. 2013; conditions: ref Pitt et al. 2013, cited from earlier work
[9] = set-up: method as in Filippatos et al. 2016; conditions: 1066 HFrEF patients; ref Filippatos et al. 2016; cited from earlier work
[10] = cited from earlier work; for absolute change in nocturnal BP: day 90, patients with nocturnal hypertension, ref Ruilope et al. 2016
[11] = system: MR vs all other steroid hormone receptors; conditions: ref Bärfacker et al. 2012, Pitt et al. 2012; cited from earlier work

## CCOc1ncc(C)c2c1[C@H](c1ccc(C#N)cc1OC)C(C(N)=O)=C(C)N2 [finerenone]
[1]; agonist DOCA 10 nM, read-out: IC50 vs DOCA as agonist
  IC50: 46 nM
[1]; agonist corticosterone 1 nM, read-out: IC50 vs corticosterone as agonist
  IC50: 24 nM
[1]; agonist cortisol 10 nM, read-out: IC50 vs cortisol as agonist
  IC50: 5 nM
[2]
  effect on S810L MR mutant: block
[3]
  delay of aldosterone-induced nuclear translocation of MR: more efficiently than spironolactone
[4]
  mode of action on SRC-1 recruitment: inverse agonist
[5]
  distribution into cardiac and kidney tissues: balanced distribution
[6]; 10 mg/kg finerenone, head-to-head
  systolic blood pressure vs 100 mg/kg eplerenone: significantly lower
[6]; equinatriuretic doses
  reduction of cardiac hypertrophy, pro-BNP and proteinuria vs eplerenone: more efficiently than eplerenone
[7]
  prevention of myocardial hypertrophy vs eplerenone: more pronounced prevention of myocardial hypertrophy
[8]; 5 and 10 mg OD vs spironolactone 25 or 50 mg/day
  decrease of BNP, NT-pro-BNP and urinary albumin vs spironolactone: at least as effective as spironolactone
[8]; 5 and 10 mg OD
  incidence of hyperkalemia vs spironolactone: significantly lower incidence
  increases in serum potassium vs spironolactone: significantly lower increases
[9]
  outcome including death and CV hospitalization vs eplerenone: nominally improved outcome
[10]; 10 mg dose group
  absolute change in nocturnal BP: −9.5 mmHg
[10]; 20 mg dose group
  absolute change in nocturnal BP: −12.0 mmHg
[10]; 7.5, 10, 15 and 20 mg, 90 days, on top of SoC, ref Bakris et al. 2015
  albuminuria: dose-dependent, significant reductions
[11]
  selectivity toward MR: at least 500 fold

— PMC5488394, “30 YEARS OF THE MINERALOCORTICOID RECEPTOR: Mineralocorticoid receptor antagonists: 60 years of research and development” (The Journal of Endocrinology, 2017)
